Where a SMILES comes first, the peptide text is derived from it.
target: purified HLA-DRB1*0101 (Homo sapiens, UniProt P01903+P01911, A100R/D57E/F55L/F60I/F76Y/I96L/L162R/M171V/P40L/Q125E/R42F/V115G/Y59C); test: biochemical; type: binding

Q: `CC[C@H](C)[C@H](NC(=O)[C@@H]1CCCN1C(=O)[C@H](CO)NC(=O)[C@@H]1CCCN1)C(=O)NCC(=O)N[C@@H](Cc1ccc(O)cc1)C(=O)N[C@@H](CC(C)C)C(=O)NCC(=O)N[C@@H](CC(C)C)C(=O)N[C@@H](CC(C)C)C(=O)N[C@@H](CO)C(=O)N[C@@H](CCC(N)=O)C(=O)N[C@@H](CCCNC(=N)N)C(=O)N[C@H](C(=O)N[C@@H](CCCNC(=N)N)C(=O)O)[C@@H](C)O` [LASV GPC236-250] was tested. Which IC50 did it give?
A: 0.14 nM

Q: With `CC[C@H](C)[C@H](NC(=O)[C@H](Cc1ccc(O)cc1)NC(=O)[C@@H](NC(=O)[C@H](CC(=O)O)NC(=O)[C@H](CCCNC(=N)N)NC(=O)[C@@H](NC(=O)[C@H](CCCNC(=N)N)NC(=O)[C@H](CCC(N)=O)NC(=O)[C@H](CO)NC(=O)[C@H](CC(C)C)NC(=O)[C@H](CC(C)C)NC(=O)CNC(=O)[C@H](CC(C)C)NC(=O)[C@@H](N)Cc1ccc(O)cc1)[C@@H](C)O)[C@@H](C)CC)C(=O)N[C@@H](CO)C(=O)O` [LASV GPC241-255] as the molecule, how does the IC50 read?
A: 0.29 nM

Q: Which IC50 does the source give for `CC(C)C[C@H](NC(=O)CNC(=O)[C@H](CS)NC(=O)[C@@H](N)CO)C(=O)N[C@@H](Cc1ccc(O)cc1)C(=O)N[C@@H](CCCCN)C(=O)N[C@@H](CCC(N)=O)C(=O)N1CCC[C@H]1C(=O)NCC(=O)N[C@H](C(=O)N1CCC[C@H]1C(=O)N[C@H](C(=O)N[C@@H](CCCNC(=N)N)C(=O)N[C@@H](Cc1c[nH]c2ccccc12)C(=O)N[C@@H](CCCCN)C(=O)O)C(C)C)C(C)C` [LASV GPC476-490] here?
A: 1.5 nM

Q: Which IC50 does the source give for `CC[C@H](C)[C@H](NC(=O)[C@H](Cc1ccc(O)cc1)NC(=O)[C@H](CC(=O)O)NC(=O)[C@H](CCCCN)NC(=O)[C@H](CCCNC(=N)N)NC(=O)[C@@H](N)CC(C)C)C(=O)N[C@@H](CCCCN)C(=O)N[C@@H](CCCNC(=N)N)C(=O)N[C@@H](CCC(N)=O)C(=O)NCC(=O)N[C@@H](CO)C(=O)N[C@H](C(=O)N1CCC[C@H]1C(=O)N[C@@H](CC(C)C)C(=O)N[C@@H](C)C(=O)O)[C@@H](C)O` [LCMV GPC421-435] here?
A: 4.8 nM

Q: Which IC50 does the source give for `CC[C@H](C)[C@H](NC(=O)[C@H](CC(C)C)NC(=O)CNC(=O)[C@H](CCC(=O)O)NC(=O)[C@@H]1CCCN1C(=O)[C@H](CC(N)=O)NC(=O)[C@@H](NC(=O)[C@H](CCCCN)NC(=O)[C@H](CCC(N)=O)NC(=O)[C@H](Cc1ccccc1)NC(=O)[C@H](CC(N)=O)NC(=O)[C@@H](N)CCCNC(=N)N)C(C)C)C(=O)N[C@@H](CCCCN)C(=O)N[C@@H](CCC(=O)O)C(=O)N[C@@H](Cc1ccccc1)C(=O)O` [LCMV L256-270] (H-RNFQKVNPEGLIKEF-OH) here?
A: 5.6 nM

Q: With `CC[C@H](C)[C@H](NC(=O)[C@H](CCC(=O)O)NC(=O)[C@H](CO)NC(=O)[C@H](CC(C)C)NC(=O)[C@@H](NC(=O)[C@@H](NC(=O)[C@H](CCCCN)NC(=O)[C@H](CCCNC(=N)N)NC(=O)[C@H](CC(C)C)NC(=O)[C@@H](N)Cc1c[nH]cn1)C(C)C)[C@@H](C)CC)C(=O)N[C@@H](CO)C(=O)N[C@@H](Cc1ccccc1)C(=O)N[C@@H](Cc1c[nH]cn1)C(=O)N[C@@H](CC(C)C)C(=O)N[C@H](C(=O)O)C(C)C` [LCMV L946-960] (H-HLRKVILSEISFHLV-OH) as the molecule, how does the IC50 read?
A: 2.1 nM

Q: `CC(C)C[C@H](NC(=O)[C@H](CCC(=O)O)NC(=O)[C@H](CCCNC(=N)N)NC(=O)[C@H](CCCNC(=N)N)NC(=O)[C@H](CC(C)C)NC(=O)[C@H](C)NC(=O)[C@H](CCC(N)=O)NC(=O)[C@@H](NC(=O)[C@H](Cc1c[nH]c2ccccc12)NC(=O)[C@H](CCC(N)=O)NC(=O)[C@H](Cc1ccccc1)NC(=O)[C@H](CO)NC(=O)[C@H](CCCCN)NC(=O)[C@@H](NC(=O)[C@@H](N)CCC(=O)O)C(C)C)[C@@H](C)O)C(=O)O` [LCMV NP6-20] was tested. Which IC50 did it give?
A: 49 nM

Q: With `CC[C@H](C)[C@H](NC(=O)[C@H](CS)NC(=O)[C@H](CC(=O)O)NC(=O)[C@@H](N)CCSC)C(=O)N[C@H](C(=O)N[C@@H](Cc1ccccc1)C(=O)N[C@@H](CCC(=O)O)C(=O)N[C@@H](CO)C(=O)N[C@@H](C)C(=O)N[C@@H](CO)C(=O)N[C@@H](CCCCN)C(=O)N[C@@H](C)C(=O)N[C@@H](CCCNC(=N)N)C(=O)N[C@@H](CC(C)C)C(=O)N1CCC[C@H]1C(=O)O)[C@@H](C)CC` [LCMV NP521-535] as the molecule, how does the IC50 read?
A: 4.4 nM

Q: Which IC50 does the source give for `CC[C@H](C)[C@H](NC(=O)[C@H](CC(C)C)NC(=O)[C@H](Cc1ccccc1)NC(=O)[C@@H](NC(=O)[C@H](CC(N)=O)NC(=O)[C@@H](NC(=O)CNC(=O)CNC(=O)[C@H](CCCCN)NC(=O)[C@H](CCSC)NC(=O)[C@H](Cc1ccc(O)cc1)NC(=O)[C@H](Cc1ccc(O)cc1)NC(=O)[C@H](Cc1ccccc1)NC(=O)[C@H](CO)NC(=O)[C@@H](N)CC(N)=O)C(C)C)[C@@H](C)O)C(=O)O` [MACV GPC96-110] here?
A: 0.21 nM

Q: `CC(C)C[C@H](NC(=O)[C@H](CO)NC(=O)[C@H](CCCNC(=N)N)NC(=O)[C@H](CCC(=O)O)NC(=O)[C@H](Cc1ccccc1)NC(=O)[C@H](CC(N)=O)NC(=O)[C@H](CC(C)C)NC(=O)[C@H](Cc1c[nH]cn1)NC(=O)[C@@H](NC(=O)[C@H](CCCCN)NC(=O)[C@@H](N)CO)[C@@H](C)O)C(=O)N[C@@H](CCCCN)C(=O)N[C@@H](C)C(=O)N[C@@H](Cc1ccccc1)C(=O)N[C@@H](Cc1ccccc1)C(=O)O` [MACV GPC251-265] was tested. Which IC50 did it give?
A: 1.7 nM

Q: `CC[C@H](C)[C@H](NC(=O)CNC(=O)[C@@H](NC(=O)[C@H](CC(C)C)NC(=O)[C@H](Cc1c[nH]cn1)NC(=O)[C@H](CC(C)C)NC(=O)[C@H](Cc1ccccc1)NC(=O)[C@H](CC(C)C)NC(=O)[C@H](CO)NC(=O)[C@H](C)N)C(C)C)C(=O)N1CCC[C@H]1C(=O)N[C@H](C(=O)N[C@@H](Cc1c[nH]cn1)C(=O)N[C@@H](CCCNC(=N)N)C(=O)N[C@@H](Cc1c[nH]cn1)C(=O)O)[C@@H](C)O` [MACV GPC446-460] was tested. Which IC50 did it give?
A: 0.13 nM

Q: Which IC50 does the source give for `CC[C@H](C)[C@H](NC(=O)[C@H](CC(C)C)NC(=O)[C@H](CCCCN)NC(=O)[C@@H](NC(=O)[C@H](C)NC(=O)[C@H](CCC(=O)O)NC(=O)[C@H](CC(C)C)NC(=O)[C@@H](NC(=O)[C@H](CC(=O)O)NC(=O)[C@H](CC(C)C)NC(=O)[C@@H](NC(=O)[C@H](CCCNC(=N)N)NC(=O)[C@@H](N)CC(=O)O)C(C)C)[C@@H](C)CC)C(C)C)C(=O)N[C@@H](CCCNC(=N)N)C(=O)N[C@@H](CCCCN)C(=O)O` [MACV L391-405] (H-DRVLDILEAVKLIRK-OH) here?
A: 0.48 nM

Q: `CC[C@H](C)[C@H](NC(=O)[C@H](Cc1c[nH]cn1)NC(=O)[C@H](Cc1c[nH]cn1)NC(=O)[C@@H](NC(=O)[C@H](CCC(N)=O)NC(=O)[C@H](CC(N)=O)NC(=O)[C@H](C)NC(=O)[C@H](Cc1ccccc1)NC(=O)[C@H](C)NC(=O)[C@H](CCSC)NC(=O)[C@H](CC(C)C)NC(=O)[C@H](Cc1ccccc1)NC(=O)[C@H](Cc1ccc(O)cc1)NC(=O)[C@@H](N)CCCNC(=N)N)[C@@H](C)CC)C(=O)N[C@@H](CC(=O)O)C(=O)O` [MACV L636-650] was tested. Which IC50 did it give?
A: 0.24 nM

Q: How did the IC50 turn out when `CC[C@H](C)[C@H](NC(=O)[C@H](CC(C)C)NC(=O)[C@H](Cc1ccc(O)cc1)NC(=O)[C@@H](N)CC(=O)O)C(=O)N[C@@H](CC(C)C)C(=O)N[C@@H](CCCCN)C(=O)N[C@@H](CC(N)=O)C(=O)N[C@@H](CC(C)C)C(=O)N[C@H](C(=O)NCC(=O)N[C@@H](CC(C)C)C(=O)N[C@H](C(=O)N[C@@H](CO)C(=O)N[C@@H](C)C(=O)NCC(=O)O)C(C)C)[C@@H](C)O` [MACV L866-880] was run?
A: 0.21 nM

— PMC2880318 (Immunome Research, 2010)
